Source: patent publication US20250186450A1, “COMBINATION THERAPY COMPRISING DGK INHIBITORS and PD-1/PD-L1 INHIBITORS” (Incyte Corporation, priority 2023, published 2025)
“Also recorded” adds a separate entry of the source.

System: MC38 syngeneic tumor model
Assay: MC38 syngeneic tumor model, DGK inhibitor plus anti-PD-1 (RMP1-14)
Type: in vivo, C57Bl/6 mice
Description: The in vivo effect of combining Compound 1 plus anti-PD-1 (RMP1-14, Bio X Cell) was assessed in the MC38 (CRL-1642, ATCC, Manassas, VA) syngeneic tumor model (see FIG. 3) in 6 to 8 weeks old C57Bl/6 mice (Jackson laboratories). Compound 1 was suspended in 5% N,N-dimethylacetamide (DMAC)+50 mM Citrate buffer in 0.5% methyl cellulose for oral administration and RMP1-14 was suspended in saline for intraperitoneal administration. Briefly, the left flank of the mice was shaved the day prior to subcutaneous inoculation with 2×10^6 MC38 cells suspended in PBS. On day 7, tumor dimensions were measured by Vernier calipers, and volume estimated by the formula Volume=[L (long dimension)×W^2 (short dimension)]/2. Mice were randomized into 6 groups of 10 mice of approximate mean volume (˜160 mm^3). Tumors were measured 3 times per week for the duration of the study. Starting day 7, mice were dosed with (i) vehicle; (ii) 250 μg/mouse of RMP1-14; (iii) 10 mg/kg of Compound 1; (iv) 1 mg/kg of Compound 1; (v) 10 mg/kg of Compound 1 and 250 μg/mouse of RMP1-14; or (vi) 1 mg/kg of Compound 1 and 250 μg/mouse of RMP1-14. Compound 1 was administered orally once daily (QD) for 12 days, while RMP1-14 was dosed every 5 days (for a total of 3 doses).
The in vivo effect of combining Compound 2 plus anti-PD-1 (RMP1-14, Bio X Cell) was assessed in the MC38 (CRL-1642, ATCC, Manassas, VA) syngeneic tumor model in 6 to 8 weeks old C57Bl/6 mice (Jackson laboratories). Compound 2 was suspended in 5% N,N-dimethylacetamide (DMAC)+50 mM Citrate buffer in 0.5% methyl cellulose for oral administration and RMP1-14 was suspended in saline for intraperitoneal administration. Briefly, the left flank of the mice was shaved the day prior to subcutaneous inoculation with 2×10^6 MC38 cells suspended in PBS. On day 7, tumor dimensions were measured by Vernier calipers, and volume estimated by the formula Volume=[L (long dimension)×W^2 (short dimension)]/2. Mice were randomized into 6 groups of 10 mice of approximate mean volume (˜130 mm^3). Tumors were measured 3 times per week for the duration of the study. Starting day 7, mice were dosed with (i) vehicle; (ii) 250 μg/mouse of RMP1-14 (Anti-PD-1); (iii) 0.5 mg/kg of Compound 2 QD; (iv) 0.5 mg/kg of Compound 2 […] and 250 μg/mouse of RMP1-14; (v) 0.5 mg/kg of Compound 2 Q2D; (vi) 0.5 mg/kg of Compound 2 […] and 250 μg/mouse of RMP1-14; (vii) 1.5 mg/kg of Compound 2 QD; (viii) 1.5 mg/kg of Compound 2 QD and 250 μg/mouse of RMP1-14 (ix) 1.5 mg/kg of Compound 2 Q2D; (x) 1.5 mg/kg of Compound 2 Q2D and 250 μg/mouse of RMP1-14; (xi) 1.5 mg/kg of Compound 2 Q3D; or (xii) 1.5 mg/kg of Compound 2 Q3D and 250 μg/mouse of RMP1-14.
The in vivo effect of combining 2-(4-((2S,5R)-4-(bis(4-fluorophenyl)methyl)-2,5-dimethylpiperazin-1-yl)-1H-[1,2,4]triazolo[3,4-b]purin-1-yl)-N,N-dimethylethane-1-amine (i.e., Compound 3) plus anti-PD-1 (RMP1-14, Bio X Cell) was assessed in the MC38 (CRL-1642, ATCC, Manassas, VA) syngeneic tumor model in 6 to 8 weeks old C57Bl/6 mice (Jackson laboratories). Compound 3 was suspended in 5% N,N-dimethylacetamide (DMAC)+50 mM Citrate buffer in 0.5% methyl cellulose for oral administration and RMP1-14 was suspended in saline for intraperitoneal administration. Briefly, the left flank of the mice was shaved the day prior to subcutaneous inoculation with 2×10^6 MC38 cells suspended in PBS. On day 7, tumor dimensions were measured by Vernier calipers, and volume estimated by the formula Volume=[L (long dimension)×W^2 (short dimension)]/2. Mice were randomized into 6 groups of 10 mice of approximate mean volume (˜200 mm^3). Tumors were measured 3 times per week for the duration of the study. Starting day 7, mice were dosed with (i) vehicle; (ii) 250 μg/mouse of RMP1-14 (Anti-PD-1); (iii) 10 mg/kg of Compound 3 QD; (iv) 10 mg/kg of Compound 3 QD and 250 μg/mouse of RMP1-14; (v) 30 mg/kg of Compound 3 QD; or (vi) 30 mg/kg of Compound 3 QD and 250 μg/mouse of RMP1-14.

| SMILES | TGI, combined with anti-PD-1 mAb, vs anti-PD-1 mAb control group (1.5 mg/kg Compound 2 and 250 μg/mouse RMP1-14, FIG. 7) | TGI, combined with anti-PD-1 mAb, vs vehicle control group (0.5 and 1.5 mg/kg Compound 2, independent of dose schedule, and 250 μg/mouse RMP1-14, FIG. 7) | TGI, combination groups vs respective single-arm Compound 2 control group (0.5 or 1.5 mg/kg Compound 2 and 250 μg/mouse RMP1-14) | TGI vs vehicle and anti-PD-1 mAb control groups (Compound 2 alone, 0.5 or 1.5 mg/kg, FIG. 7) | combination effect on tumor growth delay (Bliss Independence analysis) (10 mg/kg or 1 mg/kg Compound 1 QD for 12 days with 250 μg RMP1-14, vs respective controls, FIG. 3) |
| --- | --- | --- | --- | --- | --- |
| Cc1nc2c(N3C[C@@H](C)N(C(c4ccc(C(F)(F)F)cc4)C4CC(F)(F)C4)C[C@@H]3C)nc3nncn3c2n1C[C@@H]1CCCO1 (single isomer, unassigned) [Example 2] | significant TGI | statistically significant; also recorded: significant TGI | statistically significant | None of the single treatment arm groups dosed with Compound 2 0.5 or 1.5 mg/kg provided statistically significant TGI | – |
| C[C@@H]1CN(c2nc3nncn3c3c2nnn3C[C@H]2CCCO2)[C@@H](C)CN1C(c1ccc(F)cc1)c1ccc(F)cc1 [Example 1, 4-((2S,5R)-4-(Bis(4-fluorophenyl)methyl)-2,5-dimethylpiperazin-1-yl)-1-(((R)-tetrahydrofuran-2-yl)methyl)-1H-[1,2,3]triazolo[4,5-e][1,2,4]triazolo[4,3-a]pyrimidine] | – | – | – | – | additive effect in tumor growth delay |
